Laboratory results as given in article PMC5526615, “Phenotypic, chemical and functional characterization of cyclic nucleotide phosphodiesterase 4 (PDE4) as a potential anthelmintic drug target” (PLoS Neglected Tropical Diseases, 2017).
Values joined by “and” are separate entries in the source; they are usually repeats but may differ in a detail not shown here. Equal entries are not always repeated. Where two headings read alike, the source gives them in different places.

What was measured:
[1] = test system: adult S. mansoni; assay: Wormassay adult worm motility; format: cell-based; details: Schistosoma mansoni, 1 h, read-out: Adult motility (-fold increase vs. DMSO controls)
Experimental: Adult schistosome screens were performed in 24-well plates (Corning Inc., cat. # 3544) using five worm pairs per well in a final volume of 2 ml of the above Basch medium. Compound was added in a volume of 1 μl DMSO such that the final concentration was 10 μM. Incubations were maintained for 3 days at 37°C under 5% CO2.
Parasite responses to chemical insult were adjudicated visually every 24 h (also at the 1 h time point for adults) using an inverted microscope and employed a constrained nomenclature of phenotype descriptors (e.g., rounding, degeneration, overactivity and slowed motility) as described. For adult parasites, in addition to observation-based annotations, we employed Wormassay to measure worm motility. Briefly, Wormassay comprises a commodity digital movie camera connected to an Apple personal computer that operates an open source software application to automatically process multiple wells (in 6-, 12- or 24-well plate formats). The application detects worm-induced changes in the occupation and vacancy of pixels between frames (outputted as an average ± S.D.). Worm motion was quantified using the “Consensus Voting Luminance Difference” option.

[2] = test system: WT C. elegans (N2 Bristol); assay: C. elegans motility assay (body bends), wild type; format: cell-based, Caenorhabditis elegans; details: 100 μM, 16 h
Experimental: (§1) Compounds were directly added onto the OP50 food source at a 100 μM final concentration or the equivalent 0.2% DMSO as control. Previously synchronized early L4 stage larvae were cultivated on NGM plates with OP50 and compounds at 20°C for 16 h. For each experimental condition and transgenic line, motility was measured for 10–20 animals. The animals were washed twice in S basal buffer, transferred onto a new NGM plate in the absence of bacteria. After a brief period of recovery from this manipulation, locomotion was measured by counting the number of body bends in 30 s intervals under a stereoscope.

[3] = biological target: SmPDE4A (Schistosoma mansoni, UniProt A0A5K4ENE3); assay: biochemical
SmPDE4A, sequence (A0A5K4ENE3 entry or part of it): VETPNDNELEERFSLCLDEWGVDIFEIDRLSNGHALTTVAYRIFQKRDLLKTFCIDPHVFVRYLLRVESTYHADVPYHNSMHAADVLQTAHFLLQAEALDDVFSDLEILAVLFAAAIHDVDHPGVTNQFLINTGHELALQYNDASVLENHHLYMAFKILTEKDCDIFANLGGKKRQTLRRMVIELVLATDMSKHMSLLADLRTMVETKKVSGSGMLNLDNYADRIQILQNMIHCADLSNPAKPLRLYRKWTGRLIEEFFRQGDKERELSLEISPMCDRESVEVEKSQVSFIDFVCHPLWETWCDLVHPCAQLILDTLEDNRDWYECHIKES
Experimental: Assays were performed in triplicate, and IC50 values were determined by non-linear regression analysis using the four-parameter logistic equation (Prism GraphPad version. 6.03).
Assay of PDE4 enzymatic activity was as described: huPDE4B2 was purchased from Proteros Biostructures, GmbH, Martinsried, Germany. […] The precipitate was collected by filtration onto Multi-Screen HTS FB plates (Millipore, Billerica, MA), washed and then dried for quantitation of radioactivity. For tests with PDE4 inhibitors, fifty percent inhibitory concentration (IC50) values were calculated based on a four-parameter logistic equation: the means and number of replicates are reported in Fig 4.

[4] = biological target: T1, huPDE4B2 (Homo sapiens, UniProt Q07343); assay: PDE4 inhibition assay, huPDE4B2 catalytic domain ([3H]-cAMP hydrolysis); format: biochemical; details: Anacor's in-house data, mean ± SD (number of assays) or two single assay values, read-out: Human PDE4B2 IC50
T1 construct: performed using the catalytic domains of (A) huPDE4B2 (NP_001032416.1); purchased Proteros Biostructures, GmbH, Martinsried, Germany
T1 sequence (Q07343 324-659): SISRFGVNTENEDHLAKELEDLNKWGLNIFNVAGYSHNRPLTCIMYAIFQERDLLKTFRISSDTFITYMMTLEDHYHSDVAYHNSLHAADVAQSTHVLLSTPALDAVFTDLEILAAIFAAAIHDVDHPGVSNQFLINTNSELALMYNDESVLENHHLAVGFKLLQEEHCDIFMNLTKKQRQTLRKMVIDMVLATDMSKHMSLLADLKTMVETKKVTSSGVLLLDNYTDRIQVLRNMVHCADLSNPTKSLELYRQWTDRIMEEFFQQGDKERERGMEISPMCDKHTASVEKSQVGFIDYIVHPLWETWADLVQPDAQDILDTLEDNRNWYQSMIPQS
Experimental: Assays with each inhibitor were performed using the catalytic domains of (A) huPDE4B2 (NP_001032416.1) and (B) SmPDE4A (Smp_134140).
Assay of PDE4 enzymatic activity was as described [96]: huPDE4B2 was purchased from Proteros Biostructures, GmbH, Martinsried, Germany. […] The precipitate was collected by filtration onto Multi-Screen HTS FB plates (Millipore, Billerica, MA), washed and then dried for quantitation of radioactivity.

[5] = test system: pde4(ce268);smpde4a(a) and pde4(ce268);smpde4a(b) transgenic C. elegans; assay: C. elegans motility assay (body bends), transgenic lines expressing smpde4a; format: cell-based, Caenorhabditis elegans; details: 100 μM, 16 h
Experimental: To generate C. elegans that carry the SmPDE4A transgene, the plasmids described above were purified and microinjected into the gonads of both WT (N2) and pde4(ce268) mutant strains at a concentration of 50 ng/μl. The injected worms (P0) were transferred to individual freshly seeded bacteria plates and allowed to reproduce. F1 progeny were screened for evidence of transgene expression based on the GFP marker. Each transgenic F1 was then singled onto a new plate. This process was repeated until lines that stably transmit the transgene were established in WT or pde(ce268) animal backgrounds. To verify the consistency of GFP expression in the transgenic lines, 10–20 transgenic animals from each line were examined using a Zeiss Axioplan II stereoscope equipped with a FITC/GFP filter (emission 500–515 nm).
as §1, with “The animals were washed twice in S basal buffer, transferred onto a new NGM plate in the absence of bacteria.” left out

[6] = test system: huPDE4A; details: huPDE4A ref 96; cited from earlier work
[7] = test system: huPDE4D; details: huPDE4D ref 96; cited from earlier work
[8] = test system: huPDE4B; details: huPDE4B ref 96; cited from earlier work
[9] = recombinant catalytic domain, mean ± SD (number of assays) or two single assay values, read-out: SmPDE4A IC50
[10] = SmPDE4A IC50, recombinant catalytic domain, mean ± SD (number of assays) or two single assay values

Row | SMILES | fold induction at 10 µM ([1]; Wormassay, 10 μM after 1 h) | IC50 [3, 9] | IC50 [4] | further results
1 | CC(=O)CCCOc1nc(Oc2cc(F)c3c(c2)COB3O)c(Cl)cc1C#N [Compound 1] | 9.9 | – | – | –
2 | CC(=O)CCCOc1nc(Oc2ccc3c(c2)COB3O)c(Cl)cc1C#N [Compound 2] | 7.9 | – | – | motility relative to the DMSO control [2]: increased motility
3 | CN(C)C(=O)CCCOc1nc(Oc2ccc3c(c2)COB3O)ccc1C#N [Compound 3] | 7.1 | 14.7 ± 6.4 nM | 30 ± 26.7 nM | –
4 | CC(C)OCCOc1nc(Oc2ccc3c(c2)COB3O)ccc1C#N [Compound 4] | 5.7 | 12 ± 6.2 nM | 3.8 ± 2.7 nM | motility relative to the DMSO control [2]: did not
5 | N#Cc1ccc(Oc2ccc3c(c2)COB3O)cc1C(F)(F)F [Compound 5] | – | – | 68.9 nM and 22.1 nM | fold induction at 10 µM [1]: 3.9; IC50 [3, 10]: 47 ± 27.4 nM
6 | CC(C)S(=O)(=O)c1ccc(Oc2ccc3c(c2)COB3O)cc1 [Compound 6] | 1.5 | 415 nM | 43.6 nM and 65 nM | –
7 | N#Cc1ccc(Oc2ccc3c(c2)COB3O)cc1O [Compound 7] | 1.1 | 123 nM | 19.3 nM and 32.4 nM | –
8 | O=C(Nc1c(Cl)cncc1Cl)c1ccc(OC(F)F)c(OCC2CC2)c1 [Roflumilast, roflumilast, reference compound] | – | – | – | IC50 [3, 10]: 11.3 nM and 18 nM and 11 nM
9 | COc1ccc(C2CNC(=O)C2)cc1OC1CCCC1 (stereo not shown) [Rolipram, rolipram, reference compound] | – | – | – | motility of mutant lines carrying the smpde4a transgene [5]: increased motility significantly; IC50 ([3]; recombinant catalytic domain, read-out: SmPDE4A IC50): > 10000 nM
10 | Nc1ncnc2c1ncn2[C@@H]1O[C@@H]2COP(=O)(O)O[C@H]2[C@H]1O [cAMP, cyclic adenosine monophosphate] | – | – | – | Km [6]: 0.98 µM; Km [7]: 7.81 µM; Km [8]: 2.25 µM
